The numbers were not newly measured in publication PMC7094870 (ACS chemical biology, 2020), which cites them from elsewhere.

This data set has as its system platinum resistant ovarian cancer and non-small cell lung cancer. The conditions noted are these: patients; cited from earlier work.

On to `COc1ccc(C[C@H]2NC(=O)/C=C/C[C@@H]([C@H](C)[C@H]3O[C@@H]3c3ccccc3)OC(=O)[C@H](CC(C)C)OC(=O)C(C)(C)CNC2=O)cc1Cl` [cryptophycin-52], for which the “dose limiting toxicity in clinical trials” value is given as “dose limiting peripheral neuropathy”.
